From patent publication US20240199677A1, “GLYCOSYLTRANSFERASE INHIBITORS” (CALIFORNIA INSTITUTE OF TECHNOLOGY, priority 2018, published 2024)
Values after ≈ are worked out from the molar mass of the structure shown. Where two headings read alike, the source gives them in different places.

What was measured:
[1] = tested on: C. difficile spores; experiment: Spore viability testing; assay type: cell-based; conditions: for Effect on viability of C. difficile spores (CFU): x2 MIC, 24 hours; for Inhibition of spore germination: x5 MIC
[2] = tested on: Vero cells; experiment: Cytotoxicity MTT assay, Vero cells; assay type: cell-based, monkey
Protocol: (§1) Cytotoxicity Assays. Cytotoxicity assays were performed using Vero monkey kidney (ATCC CCL-81) and HepG2 human hepatoblastoma cell (ATCC HB-8065) lines. Vero or HepG2 cells were cultured in 75 cm^2 flasks and transferred to 96-well cell culture plates using ATCC-formulated Eagle's minimum essential medium containing 10% FBS, penicillin, and streptomycin. Serially diluted aliquots of each test compound at concentrations ranging from 0.78-200 μg/mL were added to the cells. […] The plates were incubated and cytotoxic effects were determined via the MTT assay.
(§2) Selected molecules were tested for cytotoxicity (IC50) in cancer and healthy cells via a MTT colorimetric assay.
(§3) Cytotoxicity Assays. For Vero cells: Vero cell was cultured in Complete eagle's minimum essential growth medium (EMEM) containing L-glutamine, sodium pyruvate, minimum essential amino acids, penicillin-streptomycin and 10% fetal bovine serum. Inoculating number of cells were 400,000 cells/mL and a final 40,000 cells/well. After 72 h of exposure of molecules to this cell line at concentrations ranging from 0.78 to 200 μg/mL, the culture medium was changed to complete EMEM without phenol red before addition of yellow tetrazolium dye; MTT. Viability was assessed on the basis of cellular conversion of MTT into a purple formazan product. The absorbance of the colored formazan product was measured at 570 nm by BioTek Synergy HT Spectrophotometer. Linearity of the MTT response to the cell number was determined.

[3] = Hemolysis, sheep blood; assay type: cell-based; conditions: sheep, sheep blood
[4] = tested on: C. difficile ATCC43596; experiment: Minimum inhibitory concentration assay; conditions: for C. difficile ATCC43596 MIC: 48 h, 37° C.; for MIC: Clostridioides difficile, ATCC43596, 48 h, read-out: C. difficile ATCC43596 MIC
[5] = tested on: L12210; experiment: Cytotoxicity MTT assay, L12210; assay type: cell-based
Protocol: as §2
(§4) Each cell was cultured in recommended medium by ATCC, and the IC50 data were obtained with each cell line.

[6] = tested on: KB; experiment: Cytotoxicity MTT assay, KB; assay type: cell-based
Protocol: as §2, §4

[7] = tested on: LoVo; experiment: Cytotoxicity MTT assay, LoVo; assay type: cell-based
Protocol: as §2, §4

[8] = tested on: SK-OV-3; experiment: Cytotoxicity MTT assay, SK-OV-3; assay type: cell-based
Protocol: as §2, §4

[9] = tested on: MDA-MB-435S; experiment: Cytotoxicity MTT assay, MDA-MB-435S; assay type: cell-based
Protocol: as §2, §4

[10] = tested on: AsPc-1; experiment: Cytotoxicity MTT assay, AsPc-1; assay type: cell-based
Protocol: as §2, §4

[11] = tested on: Panc-1; experiment: Cytotoxicity MTT assay, Panc-1; assay type: cell-based
Protocol: as §2, §4

[12] = tested on: HPAF-II; experiment: Cytotoxicity MTT assay, HPAF-II; assay type: cell-based
Protocol: as §2, §4

[13] = tested on: HepG2; experiment: Cytotoxicity MTT assay, HepG2; assay type: cell-based; conditions: human
[14] = tested on: Caco-2; experiment: Cytotoxicity MTT assay, Caco-2; assay type: cell-based; conditions: human
Protocol: as §2, §4

[15] = molecular target: M. jannaschii AgIH (Methanocaldococcus jannaschii (strain ATCC 43067 / DSM 2661 / JAL-1 / JCM 10045 / NBRC 100440) (Methanococcus jannaschii), UniProt Q58513); conditions: read-out: AgIH inhibition IC50, M. jannaschii AgIH
Sequence of M. jannaschii AgIH (Q58513 whole entry, looked up): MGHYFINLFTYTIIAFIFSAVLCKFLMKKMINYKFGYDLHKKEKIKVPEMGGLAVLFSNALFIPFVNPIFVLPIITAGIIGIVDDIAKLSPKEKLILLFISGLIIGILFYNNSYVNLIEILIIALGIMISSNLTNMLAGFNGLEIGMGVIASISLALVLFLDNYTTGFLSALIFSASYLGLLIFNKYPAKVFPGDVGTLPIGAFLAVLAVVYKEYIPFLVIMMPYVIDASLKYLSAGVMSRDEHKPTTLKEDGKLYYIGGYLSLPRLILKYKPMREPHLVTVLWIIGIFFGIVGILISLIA

[16] = tested on: MraY; conditions: read-out: MraY inhibition IC50
[17] = Cytotoxicity MTT assay, Vero cells; assay type: cell-based, monkey; conditions: monkey
Protocol: as §1, §2, §3

[18] = tested on: AsPc-1 cells; experiment: Synergistic assay (checkerboard), 11 and Paclitaxel; assay type: cell-based
Protocol: (§5) The FIC index was calculated according to the following equation. ΣFIC=FICA+FICB=CA/MICA+CB/MICB where MICA and MICB are MIC of drugs A and B, CA and CB are the concentrations of drugs A and B used in combination. In these interaction studies, ΣFIC of less than 0.5 represents synergistic activity.

[19] = tested on: AsPc-1 cells; experiment: Synergistic assay (checkerboard), 11 and Gemcitabine; assay type: cell-based
Protocol: as §5
These experiments were performed in the same manner as those of Example 7.

CCCCCCCc1ccc(NC(=O)CCCN[C@H](C(N)=O)[C@H](OC2O[C@H](CN)[C@@H](O)[C@H]2O)[C@H]2O[C@@H](n3ccc(=O)[nH]c3=O)C(O)[C@H]2O)cc1 (stereo partly drawn) [Compound 10]
Effect on viability of C. difficile spores (CFU) [1]: caused loss of viability of C. difficile spores | IC50 ([2]; Primates, Vero, Table 2, read-out: Vero cells IC50): 7080 nM | IC50 [3]: 70000 nM | Anti-C. difficile activity [4]: display anti-C. difficile activity

Tunicamycin
IC50 ([2]; Table 2, read-out: Vero cells IC50): 120 nM | IC50 ([2]; Table 3, 72 h exposure, read-out: Cytotoxicity IC50 Vero): 120 nM | IC50 ([5]; mouse): 1700 nM | IC50 ([6]; human): 2500 nM | IC50 ([7]; human): 1700 nM | IC50 ([8]; human): 1850 nM | IC50 ([9]; human): 900 nM | IC50 ([10]; human): 460 nM | IC50 ([11]; human): 625 nM | IC50 ([12]; human): < 98 nM | IC50 [13]: 190 nM | IC50 [14]: 950 nM | IC50 [15]: 13300 nM | C. difficile ATCC43596 MIC [4]: >50 µg/mL

Cc1ncc([N+](=O)[O-])n1CCO [metronidazole, reference compound]
Inhibition of spore germination [1]: did not inhibit the spore germination

CCCCCCCc1ccc(NC(=O)CCCN(C)[C@H](C(N)=O)[C@H](OC2O[C@H](CN)[C@@H](O)[C@H]2O)[C@H]2O[C@@H](n3ccc(=O)[nH]c3=O)C(O)[C@H]2O)cc1 (stereo partly drawn) [Compound 9]
Effect on viability of C. difficile spores (CFU) [1]: caused loss of viability of C. difficile spores | Anti-C. difficile activity [4]: display anti-C. difficile activity | MIC [4]: 25 µg/mL (≈ 34.7 µM)

CN(CCCC(=O)NCc1ccc(N2CCC(Oc3ccc(C(F)(F)F)cc3)CC2)cc1)[C@H](C(N)=O)[C@H](O[C@@H]1O[C@H](CN)[C@@H](O)[C@H]1O)[C@H]1O[C@@H](n2ccc(=O)[nH]c2=O)[C@H](O)C1O (stereo partly drawn) [Compound 12]
Anti-C. difficile activity [4]: display anti-C. difficile activity | MIC [4]: 50 µg/mL (≈ 56.8 µM)

CN[C@H](CC(C)C)C(=O)N[C@H]1C(=O)N[C@@H](CC(N)=O)C(=O)N[C@H]2C(=O)N[C@H]3C(=O)N[C@H](C(=O)N[C@H](C(=O)O)c4cc(O)cc(O)c4-c4cc3ccc4O)[C@H](O)c3ccc(c(Cl)c3)Oc3cc2cc(c3O[C@@H]2O[C@H](CO)[C@@H](O)[C@H](O)[C@H]2O[C@H]2C[C@](C)(N)[C@H](O)[C@H](C)O2)Oc2ccc(cc2Cl)[C@H]1O [vancomycin, reference compound]
Inhibition of spore germination [1]: did not inhibit the spore germination | MIC [4]: 2.5 µg/mL (≈ 1.73 µM)

CN(CCCN)[C@H](C(=O)O)[C@H](O[C@@H]1O[C@H](CN)[C@@H](O)[C@H]1O)[C@H]1O[C@@H](n2ccc(=O)[nH]c2=O)[C@H](O)[C@@H]1O [FR-900493 (1), FR-900493, reference compound]
IC50 [16]: 25000 nM | C. difficile ATCC43596 MIC [4]: >50 µg/mL

CC(=O)O[C@H]1C(=O)[C@@]2(C)[C@H]([C@H](OC(=O)c3ccccc3)[C@]3(O)C[C@H](OC(=O)[C@H](O)[C@@H](NC(=O)c4ccccc4)c4ccccc4)C(C)=C1C3(C)C)[C@]1(OC(C)=O)CO[C@@H]1C[C@@H]2O [Taxol, Paclitaxel]
IC50 at 72 h [17]: 190 nM | IC50 ([5]; read-out: Cytotoxicity IC50 L12210): 550 nM | IC50 ([6]; Homo sapiens, KB, read-out: Cytotoxicity IC50 KB): 790 nM | IC50 ([7]; Homo sapiens, LoVo, read-out: Cytotoxicity IC50 LoVo): 57 nM | IC50 ([8]; Homo sapiens, SK-OV-3, read-out: Cytotoxicity IC50 SK-OV-3): 1080 nM | IC50 ([9]; Homo sapiens, MDA-MB-435S, read-out: Cytotoxicity IC50 MDA-MB-435S): 110 nM | IC50 ([10]; Homo sapiens, ASPC1, read-out: Cytotoxicity IC50 AsPc-1): 190 nM | IC50 ([11]; Homo sapiens, PANC-1, read-out: Cytotoxicity IC50 Panc-1): 20 nM | IC50 ([12]; Homo sapiens, HPAF-II, read-out: Cytotoxicity IC50 HPAF-II): 20 nM | IC50 ([18]; Homo sapiens, ASPC1, Paclitaxel alone, AsPc-1 cells, read-out: IC50 B): 550 nM | Taxol concentration to kill AsPc-1 cells when combined with 11 ([18]; as low as, combined with 11): 7 nM

Nc1ccn([C@@H]2O[C@H](CO)[C@@H](O)C2(F)F)c(=O)n1 [Gemcitabine, reference compound]
IC50 ([19]; Homo sapiens, ASPC1, Gemcitabine alone, AsPc-1 cells, read-out: IC50 B): 390 nM | Concentration in combination resulting in AsPc-1 cell death ([19]; as low as, 11 together with Gemcitabine): 0.977 µM

CC(=O)NC[C@H]1CN(c2ccc(N3CCOCC3)c(F)c2)C(=O)O1 [linezolid, reference compound]
Inhibition of spore germination [1]: did not inhibit the spore germination
